Results published in ChEMBL document CHEMBL4825691, “Antimicrobial, modulatory, and antibiofilm activity of tt-farnesol on bacterial and fungal strains of importance to human health” (2021).
Values after ≈ are worked out from the molar mass of the structure shown.

Key:
Format in all cases: functional
Klebsiella pneumoniae [1] = assay: Antibacterial activity against Klebsiella pneumoniae ATCC 1705 assessed as inhibition of bacterial growth incubated for 24 hrs by microdilution assay
Klebsiella pneumoniae [2] = assay: Antibacterial activity against Klebsiella pneumoniae ATCC 700603 assessed as inhibition of bacterial growth incubated for 24 hrs by microdilution assay
Escherichia coli [3] = assay: Antibacterial activity against Escherichia coli EOL 931 assessed as inhibition of bacterial growth incubated for 24 hrs by microdilution assay
Escherichia coli [4] = assay: Antibacterial activity against Escherichia coli EAEC I 4913 assessed as inhibition of bacterial growth incubated for 24 hrs by microdilution assay
Escherichia coli [5] = assay: Antibacterial activity against Escherichia coli EHEC 933 assessed as inhibition of bacterial growth incubated for 24 hrs by microdilution assay
Escherichia coli [6] = assay: Antibacterial activity against Escherichia coli EIEC E20851 assessed as inhibition of bacterial growth incubated for 24 hrs by microdilution assay
Escherichia coli [7] = assay: Antibacterial activity against Escherichia coli ETEC 2589093 assessed as inhibition of bacterial growth incubated for 24 hrs by microdilution assay
Escherichia coli [8] = assay: Antibacterial activity against Escherichia coli STEC 2C1 assessed as inhibition of bacterial growth incubated for 24 hrs by microdilution assay
Escherichia coli [9] = assay: Antibacterial activity against Escherichia coli EPEC E234969 assessed as inhibition of bacterial growth incubated for 24 hrs by microdilution assay
[10] = system: Stenotrophomonas maltophilia; assay: Antibacterial activity against Stenotrophomonas maltophilia EM 0104assessed as inhibition of bacterial growth incubated for 24 hrs by microdilution assay
Acinetobacter baumannii = assay: Antibacterial activity against Acinetobacter baumannii ATCC 19606 assessed as inhibition of bacterial growth incubated for 24 hrs by microdilution assay; conditions: ATCC 19606 = CIP 70.34 = JCM 6841
Salmonella typhimurium = assay: Antibacterial activity against Salmonella enterica subsp. enterica serovar Typhimurium ATCC 14028 assessed as inhibition of bacterial growth incubated for 24 hrs by microdilution assay
Serratia marcescens = assay: Antibacterial activity against Serratia marcescens ATCC 13880 assessed as inhibition of bacterial growth incubated for 24 hrs by microdilution assay; conditions: subsp. marcescens ATCC 13880
Enterococcus faecalis [11] = assay: Antibacterial activity against Enterococcus faecalis ATCC 6569 assessed as inhibition of bacterial growth incubated for 24 hrs by microdilution assay
Enterococcus durans = assay: Antibacterial activity against Enterococcus durans BIO 0114 assessed as inhibition of bacterial growth incubated for 24 hrs by microdilution assay
Streptococcus mutans = assay: Antibacterial activity against Streptococcus mutans ATCC 25175 assessed as inhibition of bacterial growth incubated for 24 hrs by microdilution assay
Streptococcus sobrinus = assay: Antibacterial activity against Streptococcus sobrinus ATCC 27351 assessed as inhibition of bacterial growth incubated for 24 hrs by microdilution assay
Shigella flexneri = assay: Antibacterial activity against Shigella flexneri CCCD S006 assessed as inhibition of bacterial growth incubated for 24 hrs by microdilution assay
Streptococcus pyogenes = assay: Antibacterial activity against Streptococcus pyogenes ATCC 19615 assessed as inhibition of bacterial growth incubated for 24 hrs by microdilution assay
Enterococcus faecalis [12] = assay: Antibacterial activity against Enterococcus faecalis ATCC 29212 assessed as inhibition of bacterial growth incubated for 24 hrs by microdilution assay
Streptococcus agalactiae = assay: Antibacterial activity against Streptococcus agalactiae ATCC 13813 assessed as inhibition of bacterial growth incubated for 24 hrs by microdilution assay
Escherichia coli [13] = assay: Antibacterial activity against Escherichia coli ATCC 25922 assessed as inhibition of bacterial growth incubated for 24 hrs by microdilution assay
Staphylococcus aureus = assay: Antibacterial activity against Staphylococcus aureus ATCC 29213 assessed as inhibition of bacterial growth incubated for 24 hrs by microdilution assay
[14] = system: Staphylococcus epidermidis; assay: Antibacterial activity against Staphylococcus epidermidis ATCC 12228 assessed as inhibition of bacterial growth incubated for 24 hrs by microdilution assay
Proteus mirabilis = assay: Antibacterial activity against Proteus mirabilis ATCC 25933 assessed as inhibition of bacterial growth incubated for 24 hrs by microdilution assay

**Q.** Which results are given for COLISTIN?
**A.** MIC (Klebsiella pneumoniae [1]): 1 µg/mL; MIC (Klebsiella pneumoniae [2]): 1 µg/mL

**Q.** `C[C@@H](O)[C@H]1C(=O)N2C(C(=O)O)=C(S[C@@H]3CN[C@H](C(=O)N(C)C)C3)[C@H](C)[C@H]12` [MEROPENEM] was tested. Which MIC (Escherichia coli [3]) did it give?
**A.** The MIC was 0.625 µg/mL (≈ 1.63 µM).

**Q.** And the MIC (Escherichia coli [4])?
**A.** The MIC was 0.625 µg/mL (≈ 1.63 µM).

**Q.** What about the MIC (Escherichia coli [5]) of the same molecule?
**A.** The MIC was 0.625 µg/mL (≈ 1.63 µM).

**Q.** And the MIC (Escherichia coli [6])?
**A.** Its MIC is 0.625 µg/mL (≈ 1.63 µM).

**Q.** What about the MIC (Escherichia coli [7]) of the same molecule?
**A.** The MIC was 0.625 µg/mL (≈ 1.63 µM).

**Q.** And the MIC (Escherichia coli [8])?
**A.** Its MIC is 0.625 µg/mL (≈ 1.63 µM).

**Q.** And the MIC (Escherichia coli [9])?
**A.** The MIC was 0.625 µg/mL (≈ 1.63 µM).

**Q.** For `CN(C)c1ccc(O)c2c1C[C@H]1C[C@H]3[C@H](N(C)C)C(O)=C(C(N)=O)C(=O)[C@@]3(O)C(O)=C1C2=O` [MINOCYCLINE], which MIC [10] is on record?
**A.** The MIC was 2 µg/mL (≈ 4.37 µM).

**Q.** What about the MIC (Acinetobacter baumannii) of the same molecule?
**A.** Its MIC is 2 µg/mL (≈ 4.37 µM).

**Q.** Which MIC (Salmonella typhimurium) does the source give for `CC1(C)S[C@@H]2[C@H](NC(=O)[C@H](N)c3ccccc3)C(=O)N2[C@H]1C(=O)O` [AMPICILLIN] here?
**A.** Its MIC is 4 µg/mL (≈ 11.4 µM).

**Q.** What about the MIC (Serratia marcescens) of the same molecule?
**A.** Its MIC is 4 µg/mL (≈ 11.4 µM).

**Q.** What about the MIC (Enterococcus faecalis [11]) of the same molecule?
**A.** The MIC was 4 µg/mL (≈ 11.4 µM).

**Q.** What about the MIC (Enterococcus durans) of the same molecule?
**A.** The MIC was 4 µg/mL (≈ 11.4 µM).

**Q.** And the MIC (Streptococcus mutans)?
**A.** Its MIC is 0.5 µg/mL (≈ 1.43 µM).

**Q.** What about the MIC (Streptococcus sobrinus) of the same molecule?
**A.** The MIC was 0.125 µg/mL (≈ 0.358 µM).

**Q.** What about the MIC (Shigella flexneri) of the same molecule?
**A.** The MIC was 4 µg/mL (≈ 11.4 µM).

**Q.** What about the MIC (Streptococcus pyogenes) of the same molecule?
**A.** Its MIC is 0.0625 µg/mL (≈ 0.179 µM).

**Q.** What about the MIC (Enterococcus faecalis [12]) of the same molecule?
**A.** The MIC was 4 µg/mL (≈ 11.4 µM).

**Q.** What about the MIC (Streptococcus agalactiae) of the same molecule?
**A.** The MIC was 0.25 µg/mL (≈ 0.715 µM).

**Q.** What about the MIC (Escherichia coli [13]) of the same molecule?
**A.** The MIC was 4 µg/mL (≈ 11.4 µM).

**Q.** How did the MIC (Staphylococcus aureus) turn out when `Cc1onc(-c2ccccc2)c1C(=O)N[C@@H]1C(=O)N2[C@@H]1SC(C)(C)[C@@H]2C(=O)O` [OXACILLIN] was run?
**A.** Its MIC is 0.25 µg/mL (≈ 0.623 µM).

**Q.** And the MIC [14]?
**A.** The MIC was 0.25 µg/mL (≈ 0.623 µM).

**Q.** Which MIC (Proteus mirabilis) does the source give for `O=C(O)c1cn(C2CC2)c2cc(N3CCNCC3)c(F)cc2c1=O` [CIPROFLOXACIN] here?
**A.** Its MIC is 0.25 µg/mL (≈ 0.754 µM).
